Reference: patent publication US5576429A, “5-substituted pyrimidine nucleosides and nucleotides” (Medivir AB, priority 1988, dated 1996)
Read-outs that look alike come from different tables or passages of the source.

How the values were obtained:
[1] = target: T1, Hepatit B virus DNA polymerase (Hepatitis B virus genotype D subtype ayw, UniProt P03156); test: Test III Inhibition of HBV DNA polymerase by triphosphates; format: biochemical; conditions: virus preparation from human serum, endogenous nucleic acid as template; read-out: Concentration for 50% inhibition (IC50) of HBV DNAP
T1 construct: The HBV-DNAP was prepared from virus obtained from human serum; from tissue; host or cells: hepatitis B virus particles from human serum, solubilized with Nonidet P40
T1 sequence (P03156 whole entry): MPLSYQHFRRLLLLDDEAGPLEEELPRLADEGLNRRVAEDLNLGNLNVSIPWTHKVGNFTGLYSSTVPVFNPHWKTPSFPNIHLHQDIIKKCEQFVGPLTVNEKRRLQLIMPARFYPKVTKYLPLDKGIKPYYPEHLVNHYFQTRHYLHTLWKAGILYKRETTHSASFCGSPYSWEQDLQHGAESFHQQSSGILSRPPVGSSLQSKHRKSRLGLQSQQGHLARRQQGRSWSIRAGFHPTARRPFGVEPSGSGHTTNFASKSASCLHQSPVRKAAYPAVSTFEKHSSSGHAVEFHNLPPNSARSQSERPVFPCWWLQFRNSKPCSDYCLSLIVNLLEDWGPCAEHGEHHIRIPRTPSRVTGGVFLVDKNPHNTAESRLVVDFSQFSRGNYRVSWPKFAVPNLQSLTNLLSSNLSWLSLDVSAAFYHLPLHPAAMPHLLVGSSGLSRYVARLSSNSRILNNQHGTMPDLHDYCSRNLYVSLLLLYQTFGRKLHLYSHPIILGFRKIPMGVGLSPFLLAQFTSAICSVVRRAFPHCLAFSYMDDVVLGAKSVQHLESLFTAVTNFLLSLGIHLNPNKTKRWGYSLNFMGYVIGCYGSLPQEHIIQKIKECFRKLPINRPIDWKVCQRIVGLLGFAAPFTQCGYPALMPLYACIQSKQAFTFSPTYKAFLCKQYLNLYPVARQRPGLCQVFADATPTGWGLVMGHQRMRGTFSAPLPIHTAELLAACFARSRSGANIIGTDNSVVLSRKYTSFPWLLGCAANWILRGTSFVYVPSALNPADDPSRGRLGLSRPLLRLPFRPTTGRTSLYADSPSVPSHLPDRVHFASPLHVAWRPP
From the text: (§1) Test III Inhibition of reverse transcriptases and DNA polymerases by triphosphates of compounds of the invention
(§2) The 5'-triphosphates were synthesized essentially as described (Yoshikawa, M, Kato T, Takenishi T, Bull. Chem. Soc. (Japan), 42,3505-3508, 1969; Ludwig, J., Acta Biochim. Biophys. Acad. Sci. Hung. 16, 131-133, 1981; Ruth, J. L., Cheng, Y. C., Mol. Pharmacol. 20, 415 1981.) The HIV-RT was obtained as described by Hansen et al (Hansen J, Schulze T and Moelling K, J. Biol. Chem. 262, 12393-12396, 1987) from culture of Escherichia coli expressing the cloned HIV-pol gene. The HBV-DNAP was prepared from virus obtained from human serum, essentially as described by Nordenfelt et al (1987) [Nordenfelt E, Lofgren B, Chattopadhyaya J., Oberg B, J. Med. Virol. 22, 231-236, 1987]. The HSV-2 DNAP and cellular DNAPα preparation and reaction conditions have been described by Larsson et al [Larsson A, Sundqvist A, Parnerud A-M, 1986, Mol. Pharmacol. 29, 614-621]. […] The hepatitis B virus enzyme activity was determined with a virus preparation solubilized by non-idet P40, and endogenous nucleic acid as template, as described by Nordenfelt et al (vide supra)

[2] = target: T2, Human immuno deficiency virus reverse transcriptase (Human immunodeficiency virus type 1 group M subtype B, UniProt P04585); test: Test III Inhibition of HIV reverse transcriptase by triphosphates; format: biochemical; conditions: template (rA)n(dT)12-18, substrate dTTP; read-out: Concentration for 50% inhibition (IC50) of HIV RT
T2 construct: Human immuno deficiency virus reverse transcriptase; made in house; host or cells: Escherichia coli
From the text: as §1, §2

[3] = target: Herpes simplex virus type 2 DNA polymerase (Human herpesvirus 2, UniProt P89453); test: Test III Inhibition of HSV-2 DNA polymerase by triphosphates; format: biochemical; conditions: read-out: Concentration for 50% inhibition (IC50) of HSV-2 DNAP
Sequence of Herpes simplex virus type 2 DNA polymerase (P89453 whole entry): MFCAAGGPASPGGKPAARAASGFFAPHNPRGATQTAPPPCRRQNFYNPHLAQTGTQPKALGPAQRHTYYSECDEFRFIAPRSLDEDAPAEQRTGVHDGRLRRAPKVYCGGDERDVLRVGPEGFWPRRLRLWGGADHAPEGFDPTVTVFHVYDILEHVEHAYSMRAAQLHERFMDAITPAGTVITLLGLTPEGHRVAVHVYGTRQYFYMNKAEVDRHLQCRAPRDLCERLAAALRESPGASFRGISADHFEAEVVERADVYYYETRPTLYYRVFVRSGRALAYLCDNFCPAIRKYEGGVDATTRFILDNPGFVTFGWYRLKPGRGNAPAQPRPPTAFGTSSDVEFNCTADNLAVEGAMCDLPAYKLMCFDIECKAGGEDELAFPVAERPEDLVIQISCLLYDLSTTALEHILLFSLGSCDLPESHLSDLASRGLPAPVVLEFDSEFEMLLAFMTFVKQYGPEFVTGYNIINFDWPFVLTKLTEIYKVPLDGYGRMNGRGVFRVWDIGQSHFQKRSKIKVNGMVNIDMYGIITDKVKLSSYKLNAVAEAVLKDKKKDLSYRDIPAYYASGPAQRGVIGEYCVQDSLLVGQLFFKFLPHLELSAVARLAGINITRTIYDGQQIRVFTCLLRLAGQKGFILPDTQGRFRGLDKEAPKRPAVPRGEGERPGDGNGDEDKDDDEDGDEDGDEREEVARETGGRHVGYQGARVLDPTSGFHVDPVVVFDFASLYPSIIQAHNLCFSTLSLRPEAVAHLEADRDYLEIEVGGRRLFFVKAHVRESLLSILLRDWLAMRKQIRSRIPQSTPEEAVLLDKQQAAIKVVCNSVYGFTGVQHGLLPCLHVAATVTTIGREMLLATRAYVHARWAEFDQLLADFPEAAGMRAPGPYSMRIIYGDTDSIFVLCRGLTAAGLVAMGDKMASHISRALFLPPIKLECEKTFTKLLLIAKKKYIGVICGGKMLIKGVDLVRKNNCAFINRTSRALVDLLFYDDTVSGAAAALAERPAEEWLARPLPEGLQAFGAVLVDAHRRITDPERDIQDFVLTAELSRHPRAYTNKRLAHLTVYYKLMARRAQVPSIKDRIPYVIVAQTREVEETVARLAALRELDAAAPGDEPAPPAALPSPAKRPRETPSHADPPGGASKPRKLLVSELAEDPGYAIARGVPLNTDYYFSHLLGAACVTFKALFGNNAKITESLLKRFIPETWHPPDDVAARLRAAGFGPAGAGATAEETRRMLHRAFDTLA
From the text: as §1, §2

DNA polymerase alpha = target: T3, DNA polymerase alpha (Homo sapiens, UniProt P09884); test: Test III Inhibition of cellular DNA polymerase alpha by triphosphates; format: biochemical; conditions: cellular DNAPα; read-out: Concentration for 50% inhibition (IC50) of DNAPα
T3 sequence (P09884 1-1462): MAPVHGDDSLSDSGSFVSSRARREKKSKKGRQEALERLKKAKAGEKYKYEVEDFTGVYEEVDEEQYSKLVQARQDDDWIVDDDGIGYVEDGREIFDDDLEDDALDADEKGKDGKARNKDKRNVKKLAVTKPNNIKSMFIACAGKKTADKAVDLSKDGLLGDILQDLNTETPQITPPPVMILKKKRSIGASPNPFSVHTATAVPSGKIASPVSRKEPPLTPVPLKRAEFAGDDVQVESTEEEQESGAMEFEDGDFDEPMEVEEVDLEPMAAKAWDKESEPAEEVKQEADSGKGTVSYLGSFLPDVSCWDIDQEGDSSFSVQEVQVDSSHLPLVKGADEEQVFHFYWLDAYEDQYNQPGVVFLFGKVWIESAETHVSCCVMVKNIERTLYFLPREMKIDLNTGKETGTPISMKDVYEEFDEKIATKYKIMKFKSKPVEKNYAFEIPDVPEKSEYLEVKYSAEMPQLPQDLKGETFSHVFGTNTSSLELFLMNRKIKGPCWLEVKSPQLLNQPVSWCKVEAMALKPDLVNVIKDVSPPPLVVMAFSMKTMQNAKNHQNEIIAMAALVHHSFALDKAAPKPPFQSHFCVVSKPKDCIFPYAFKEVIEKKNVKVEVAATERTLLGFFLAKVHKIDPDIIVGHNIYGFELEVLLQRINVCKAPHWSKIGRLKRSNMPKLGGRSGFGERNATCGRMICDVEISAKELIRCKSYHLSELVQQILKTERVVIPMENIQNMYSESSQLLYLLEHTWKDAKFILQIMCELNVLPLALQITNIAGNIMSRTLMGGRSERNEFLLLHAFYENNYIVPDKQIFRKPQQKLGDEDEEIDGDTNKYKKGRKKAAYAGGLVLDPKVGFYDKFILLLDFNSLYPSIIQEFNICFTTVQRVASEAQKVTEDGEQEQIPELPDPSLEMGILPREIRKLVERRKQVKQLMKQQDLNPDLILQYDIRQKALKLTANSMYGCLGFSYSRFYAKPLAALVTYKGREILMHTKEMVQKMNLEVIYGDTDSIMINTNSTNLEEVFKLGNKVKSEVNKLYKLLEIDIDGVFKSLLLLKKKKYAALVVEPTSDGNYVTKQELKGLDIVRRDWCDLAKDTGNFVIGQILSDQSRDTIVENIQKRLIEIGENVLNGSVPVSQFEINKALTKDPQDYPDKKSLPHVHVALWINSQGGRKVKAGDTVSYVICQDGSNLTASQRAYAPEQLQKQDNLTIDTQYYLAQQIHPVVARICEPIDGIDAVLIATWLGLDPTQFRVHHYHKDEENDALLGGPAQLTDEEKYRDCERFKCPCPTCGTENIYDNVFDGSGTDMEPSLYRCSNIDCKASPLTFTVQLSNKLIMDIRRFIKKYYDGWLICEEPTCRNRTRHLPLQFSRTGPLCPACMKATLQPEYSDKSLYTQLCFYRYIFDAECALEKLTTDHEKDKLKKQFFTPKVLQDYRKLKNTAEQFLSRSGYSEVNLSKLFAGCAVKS
From the text: as §1, §2

[4] = Test II Cellular toxicity on H9 cells (cell number after 48 h); format: cell-based; conditions: human, read-out: % inhibition of cell multiplication, H9
HIV (HTLV-IIIB) = test: Test I Effect of compounds on HIV in H9 cells (frequency of HIV antigen containing cells); format: cell-based
Method: Test I Effect of compounds of the formula I on HIV in H9 cells
Materials and methods: HIV infection of H9 cells
H9 cells, 10^5 cells per well on a 24 well plate, suspended in 2 ml RPMI-medium containing 10% fetal calf serum, 100 μg/ml pencillin, 10 μg/ml streptomycin sulfate and 2 μg/ml polybrene are exposed to HIV (HTLV-IIIB) and different concentrations of the test compounds. The plates are incubated at 37° C. in 5% CO2 for 6-7 days. The contents in each well is then homogenized with a pipette and transferred to a centrifuge tube. After centrifugation for 10 min at 1500 rpm the supernatant is removed and the cell pellet is analyzed by fixing in methanol on glass plates. Human HIV positive serum diluted 1:80 or 1:160 is added and incubated for 30 min at 37° C. The plate is then washed with phosphate-buffered saline (PBS) containing Ca^2+ and Mg^2 +. Sheep antihuman conjugate (FITC) is added and after a new incubation the plate is again washed with PBS. Contrast staining is done with Evans blue and after drying the frequency of HIV antigen containing cells is determined in a microscope.

[5] = Test II Cellular toxicity on F5000 cells (cell number after 48 h); format: cell-based, human; conditions: human, read-out: % inhibition of cell multiplication, F 5000
Method: (§3) Test II Cellular toxicity
(§4) F5000 cells, which are human embryo cells, 1×10^5 cells per plate, are incubated in Eagle's minimal essential medium, supplemented with Earle's salts, non-essential amino acids, 10% fetal calf serum, 10 mM hepes, 70 mg/l penicillin and 100 mg/l streptomycin, in absence or presence of test compounds. The number of cells per plate is determined after 48 h.

H9 cells = test: Test II Cellular toxicity on H9 cells (cell number after 48 h); format: cell-based; conditions: 200 μM
F5000 cells = test: Test II Cellular toxicity on F5000 cells (cell number after 48 h); format: cell-based, human; conditions: 100 μM
Method: as §3, §4

[6] = Human immunodeficiency virus 1, H9 cells, HIV (HTLV-IIIB), 6-7 days, read-out: Concentration for 50% inhibition (IC50) of human immuno deficiency virus multiplication in cell culture
[7] = Human immunodeficiency virus 1, IIIB, H9, read-out: Concentration for 50% inhibition (IC50) of human immuno deficiency virus multiplication in cell culture

Compound: O=c1[nH]c(=O)n([C@@H]2C[C@H](O)[C@@H](COP(=O)(O)OP(=O)(O)OP(=O)(O)O)O2)cc1-c1cccs1 [1-(2-Deoxy-alpha-D-ribofuranasyl)-5-(2-thienyl)uracil-5'-triphosphate]
- IC50 [1]: 18000 nM
- IC50 [2]: 2000 nM
- IC50 [3]: 11000 nM
- IC50 (DNA polymerase alpha): 80000 nM

Compound: O=c1[nH]c(=O)n([C@H]2C[C@H](O)[C@@H](COP(=O)(O)OP(=O)(O)OP(=O)(O)O)O2)cc1-c1cccs1 [1-(2-Deoxy-beta-D-ribofuranosyl)-5-(2-thienyl)uracil-5'-triphosphate]
- IC50 [1]: 110 nM
- IC50 [2]: 15 nM
- IC50 [3]: 60 nM
- IC50 (DNA polymerase alpha): 1600 nM

Compound: O=c1[nH]c(=O)n([C@@H]2C[C@H](O)[C@@H](CO)O2)cc1-c1cccs1 [VSA 134, 1-(2-Deoxy-alpha-D-ribofuranosyl)-5-(2-thienyl)uracil]
- inhibition at 48 h, 250 µM ([4]; 250 μM): 35%
- IC50 (HIV (HTLV-IIIB); [6]): 50 to 10000 nM
- inhibition at 48 h, 100 µM ([5]; 100 μM): 0 to 35%

Compound: O=c1[nH]c(=O)n([C@@H]2C[C@H](O)[C@@H](CO)O2)cc1-c1ccc[se]1 [VSA 188]
- inhibition at 48 h, 200 µM [4]: 40%
- IC50 (HIV (HTLV-IIIB); [7]): 2000 to 20000 nM
- inhibition at 48 h, 200 µM [5]: 15%

Compound: O=c1[nH]c(=O)n([C@H]2C[C@H](O)[C@@H](CO)O2)cc1-c1cccs1 [VSA 189]
- % inhibition of cell multiplication, H9 (H9 cells): 35%
- % inhibition of cell multiplication, F 5000 (F5000 cells): 10%

Compound: O=c1[nH]c(=O)n([C@H]2C[C@H](O)[C@@H](CO)O2)cc1-c1cc[se]c1 [VSA 992]
- inhibition at 48 h, 200 µM [4]: 40%
- inhibition at 48 h, 200 µM [5]: 0%

Compound: O=c1[nH]c(=O)n([C@@H]2C[C@H](O)[C@@H](CO)O2)cc1-c1cc[se]c1 [VSA 996]
- inhibition at 48 h, 200 µM [4]: 65%
- IC50 (HIV (HTLV-IIIB); [7]): 3000 to 100000 nM
- inhibition at 48 h, 200 µM [5]: 30%

Compound: O=c1[nH]c(=O)n([C@@H]2C[C@H](O)[C@@H](CO)O2)cc1-c1ccco1 [VSB 007, 1-(2-Deoxy-alpha-D-ribofuranosyl)-5-(2-furyl)uracil]
- IC50 (HIV (HTLV-IIIB); [6]): < 10000 nM

Compound: O=c1[nH]c(=O)n([C@H]2C[C@H](O)[C@@H](CO)O2)cc1-c1ccco1 [VSB 008, 1-(2-Deoxy-beta-D-ribofuranosyl)-5-(2-furyl)uracil]
- inhibition at 48 h, 200 µM [5]: 0%
